Measurements published in patent US10772859B2, “Methods of targeting APE/Ref-1 to inhibit hypoxia signaling genes” (Indiana University Research and Technology Corporation, priority 2015, dated 2020).
Read-outs that look alike come from different tables or passages of the source.

Columns and labels:
CA9 mRNA [1] = test: qRT-PCR of CA9 mRNA levels under hypoxia; assay type: cell-based, human; details: 24 hours of exposure to APX3330 and 1% oxygen
Procedure: qRT-PCR Reactions: qRT-PCR was used to measure the mRNA expression levels of CA9 as described in Fishel, Jiang et al. (2011) Molecular Cancer Therapeutics 10(9): 1698-1708. Cells were treated with APE1/Ref-1 siRNA or increasing amounts of APX3330 in the presence or absence of hypoxia (1% and 0.2% O2) for 24 hours, then total RNA was extracted from cells using the QiagenRNeasy Mini kit (Valencia, Calif.). First-strand cDNA synthesis and quantitative PCR were performed as described in Fishel, Vasko et al. (2007) Mutat Res 614(1-2): 24-36; Jiang, Guo et al. (2009) DNA Repair (Amst) 8(11): 1273-1282; Fishel, Jiang et al. (2011) Molecular Cancer Therapeutics 10(9): 1698-1708. The relative quantitative mRNA level was determined using the comparative Ct method using 18S rRNA, RPLPO, and B2M as reference genes (Livak and Schmittgen (2001) Methods 25(4): 402-408; Fishel, Vasko et al. (2007) Mutat Res 614(1-2): 24-36; Jiang, Guo et al. (2009) DNA Repair (Amst) 8(11): 1273-1282). The primers for CA9, 18S, RPLPO, and B2M are commercially available (Applied Biosystems).

CA9 mRNA [2] = details: Panc-1 and MIA-PaCa2 cells exposed to hypoxia, previously shown; cited from earlier work
CA9 protein = test: Western blot of CA9 protein in 3D tumor spheroid cultures with or without CAFs; assay type: cell-based, human; details: Pa03C 3D tumor cultures, in the presence and absence of CAF cells
Procedure: Western Blot Analysis: Western blots were performed as described in Wang, Luo et al. (2004) Mol Cancer Ther 3(6): 679-686; Fishel, He et al. (2008) DNA Repair (Amst) 7(2): 177-186; Fishel, Colvin et al. (2010) Hematol 38(12): 1178-1188; Jiang, Zhou et al. (2010) Cancer Investigation 28(9): 885-895; Fishel, Jiang et al. (2011) Molecular Cancer Therapeutics 10(9): 1698-1708; Cardoso, Jiang et al. (2012) PLoS ONE 10: e47462; Fishel, Wu et al. (2015) J Biol Chem 290(5): 3057-3068, with antibodies for APE1/Ref-1 (Novus Biologicals; Littleton, Colo.), HIF1α (GeneTex; Irvine, Calif.), STAT1, STATS, (Cell Signaling; Danvers, Mass.), NFκB (abcam; Cambridge, Mass.), CA9 (Santa Cruz; Dallas, Tex.) and Vinculin (Sigma; St. Louis, Mo.).
3D Co-Cultures: Ultra low attachment 96-well plates (Corning Inc., Life Sciences) were used to generate 3-dimensional tumor spheroids in the presence and absence of CAFs (75 μL/well) as described previously (Sempere, Gunn et al. (2011) Cancer Biol Ther 12(3): 198-207; Arpin, Mac et al. (2015) Molecular Cancer Therapeutics). […] On Day 12, spheroids were analyzed using Thermo ArrayScan high-content imaging system (Lovborg, Nygren et al. (2004) Mol Cancer Ther 3(5): 521-526; Lindblom, Berg et al. (2012) Toxicol Pathol 40(1): 18-32). […]

Pa02C cells = test: Alamar Blue cell proliferation in monolayer under hypoxia; assay type: cell-based, human; details: hypoxia (0.2%) for six days, single agent
Procedure: Cell Proliferation: PDAC cell proliferation in monolayer was measured using the Alamar Blue assay as described in Fishel, Wu et al. (2015) J Biol Chem 290(5): 3057-3068. Cells treated with APX3330 and SLC-0111 were exposed to hypoxia for six days followed by addition of Alamar Blue reagent (Invitrogen) and subsequent fluorescence analysis. Fold change refers to the fluorescence reading for cells treated with indicated inhibitors compared to cells growing in normal media.

[3] = test system: PDAC tumor spheroids (Pa03C and Panc10.05) alone and with CAFs; test: Three-dimensional growth assay, PDAC/CAF co-culture (Example 2); assay type: cell-based, human; details: tumor spheroids alone and in culture with CAFs
Procedure: Ninety-six well plates were coated with 1% Noble Agar (Difco) (50 μL/well). mCherry-labeled PDAC cells and EGFP-labeled CAFs were resuspended in normal growth media containing 3% Matrigel (BD Biosciences) at a cell ratio of 1:4 (tumor:CAF) and plated on top of solidified 1% Noble Agar. Cells were fed on Days 4 and 8 following plating with media containing 5% serum+3% Matrigel+investigational drug.
Utilizing APX3330, JAK 2 inhibitor (Ruxolitinib (INCB018424; Fisher Scientific) (“RUX”)) and lead STATS inhibitors (PG-S3-001, DR-4-89), the effects of Ref-1/STAT3 inhibition in PDAC low passage patient-derived cell lines (Pa03C and Panc10.05) were evaluated. The response using proliferation-based 3D co-culture assays and statistical analyses to assess synergy, additively or antagonism was evaluated using the Chou-Talalay method.
This Example was designed to visualize the same live co-cultures over 12 days with images captured by Thermo ArrayScan at 8 and 12 days of co-culture. Cancer and stromal cells in this model were marked with distinct fluorescent proteins (mCherry for tumor and EGFP for CAFs) so that the cell populations could be differentiated and quantified. […] In this way, drug efficacy of PDAC cells could be evaluated in co-culture with CAFs, which more faithfully mimics the natural in vivo PDAC environment.

[4] = test system: Pa03C and Panc10.05 tumor spheroids with or without CAFs; test: 3D co-culture tumor spheroid model (Example 1); assay type: cell-based, human; details: for tumor cell killing (reduction in area of tumor cells): 3D spheroids, 12 days in culture, with and without CAFs
Procedure: 3D Co-Cultures: Ultra low attachment 96-well plates (Corning Inc., Life Sciences) were used to generate 3-dimensional tumor spheroids in the presence and absence of CAFs (75 μL/well) as described previously (Sempere, Gunn et al. (2011) Cancer Biol Ther 12(3): 198-207; Arpin, Mac et al. (2015) Molecular Cancer Therapeutics). Cells were stably transduced with EGFP (green) or TdTomato (red) as indicated to preserve the genetic characteristics of the low passage patient cells (Jones, Zhang et al. (2008) Science 321(5897): 1801-1806). Cells were re-suspended in colorless DMEM growth media containing 3% Reduced Growth Factor Matrigel (RGF, BD Biosciences) and 5% FBS. Following plating, cells were treated on Days 4 and 8 with media containing 5% serum, 3% RGF Matrigel, and inhibitors as indicated. On Day 12, spheroids were analyzed using Thermo ArrayScan high-content imaging system (Lovborg, Nygren et al. (2004) Mol Cancer Ther 3(5): 521-526; Lindblom, Berg et al. (2012) Toxicol Pathol 40(1): 18-32). Images of 3D structures were captured by ArrayScan using a 2.5× objective for TdTomato and EGFP; then 2D projections were processed to quantify differences in total intensity and total area of both CAFs and tumor.

PDAC = test: Single-agent STAT3 inhibitor activity in vivo (FIG. 14)

SMILES	CA9 mRNA levels (CA9 mRNA [1]; Pa03C cells)	CA9 mRNA levels (CA9 mRNA [1]; pancreatic CAF cells)	CA9 mRNA levels (CA9 mRNA [2])	CA9 expression (protein) (CA9 protein)	PDAC cell proliferation (Pa02C cells)	killing of tumor spheroids [3]	tumor cell killing (reduction in area of tumor cells) [4]	cell killing in tumor cells versus CAFs ([4]; 3D co-culture, especially CAF19 with Pa03C)	activity in vivo (PDAC)
CCCCCCCCCC(=CC1=C(C)C(=O)C(OC)=C(OC)C1=O)C(=O)O [APX3330]	attenuated in a dose-dependent manner	attenuated in a dose-dependent manner	decreases	decreased CA9 expression in 3D tumor cultures in a dose-dependent manner	dose-dependent decrease	effectively killed both tumor spheroids alone and in culture with CAFs	decrease in tumor cell area	–	–
NS(=O)(=O)c1ccc(NC(=O)Nc2ccc(F)cc2)cc1 [SLC-0111]	–	–	–	–	–	–	dramatic effects on tumor cell killing observed at lower doses than in a monolayer	more dramatic in the tumor cells than in the CAFs	–
CC(C)C(C(=O)N(Cc1ccc(C2CCCCC2)cc1)c1ccc(C(=O)O)cc1)N(C)S(=O)(=O)c1c(F)c(F)c(F)c(F)c1F (centres unmarked) [PG-S3-001, reference compound]	–	–	–	–	–	effectively killed both tumor spheroids alone and in culture with CAFs	–	–	some activity was observed in vivo
